Experimental data published in the supplement of paper PMC5908809.

Assays:
SNK-6 (IL-2 2.5 ng/mL) [1] = assay: percent inhibition of viability; higher = more inhibition; details: 72 h
KAI3 (IL-2 2.5 ng/mL) [2] = assay: as above; details: 72 h
[3] = system: normal primary NK cells, pool 2 (3 donors) (IL-2 2.5 ng/mL); assay: as above; details: 72 h
[4] = system: normal primary NK cells, pool 1 (3 donors) (IL-2 2.5 ng/mL); assay: as above; details: 72 h
KHYG-1 (IL-2 2.5 ng/mL) [5] = assay: as above; details: 72 h
NK-YS (IL-2 2.5 ng/mL) [6] = assay: as above; details: 72 h
[7] = system: normal primary NK cells, pool 1 (3 donors), resting (IL-2 0 ng/mL); assay: as above; details: 72 h
YT (IL-2 2.5 ng/mL) [8] = assay: as above; details: 72 h
IMC-1 (IL-2 20 ng/mL) [9] = assay: as above; details: 72 h
DERL-7 (IL-2 2.5 ng/mL) [10] = assay: as above; details: 72 h
[11] = system: normal primary NK cells, pool 3 (3 donors) (IL-2 2.5 ng/mL); assay: as above; details: 72 h
NK-92 (IL-2 2.5 ng/mL) [12] = assay: as above; details: 72 h
NKL (IL-2 2.5 ng/mL) [13] = assay: as above; details: 72 h
SNK-6 (IL-2 2.5 ng/mL) [14] = assay: drug sensitivity score (DSS) (DSS units); higher = more sensitive; extreme values may be limits of the assay; details: 72 h
KAI3 (IL-2 2.5 ng/mL) [15] = assay: as above; details: 72 h
[16] = system: normal primary NK cells, pool 2 (3 donors) (IL-2 2.5 ng/mL); assay: as above; details: 72 h
[17] = system: normal primary NK cells, pool 1 (3 donors) (IL-2 2.5 ng/mL); assay: as above; details: 72 h
KHYG-1 (IL-2 2.5 ng/mL) [18] = assay: as above; details: 72 h
NK-YS (IL-2 2.5 ng/mL) [19] = assay: as above; details: 72 h
[20] = system: normal primary NK cells, pool 1 (3 donors), resting (IL-2 0 ng/mL); assay: as above; details: 72 h
YT (IL-2 2.5 ng/mL) [21] = assay: as above; details: 72 h
IMC-1 (IL-2 20 ng/mL) [22] = assay: as above; details: 72 h
DERL-7 (IL-2 2.5 ng/mL) [23] = assay: as above; details: 72 h
[24] = system: normal primary NK cells, pool 3 (3 donors) (IL-2 2.5 ng/mL); assay: as above; details: 72 h
NK-92 (IL-2 2.5 ng/mL) [25] = assay: as above; details: 72 h
NKL (IL-2 2.5 ng/mL) [26] = assay: as above; details: 72 h
[27] = system: normal NK cells expanded with K562-aAPC; assay: percent inhibition of viability; higher = more inhibition; details: 72 h, IL-2 2.5 ng/mL
Experimental: (§1)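 Drug sensitivity and resistance testing on K562-aAPC-expanded normal NK cells: 5 concentrations (10-fold steps over a 10,000-fold range), 72 h at 37 °C, viability by CellTiter-Glo normalised to DMSO and benzethonium chloride controls; DSS from the fitted curve.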

[28] = system: normal NK cells expanded with K562-aAPC; assay: drug sensitivity score (DSS) (DSS units); higher = more sensitive; extreme values may be limits of the assay; details: 72 h; IL-2 2.5 ng/mL
Experimental: as §1

Cc1ccc(F)c(NC(=O)Nc2ccc(-c3cccc4[nH]nc(N)c34)cc2)c1 [Linifanib] (max concentration tested 1000 nM)
percent inhibition of viability [%]
Details | 0.1 nM | 1 nM | 10 nM | 100 nM | 1000 nM
DERL-7 (IL-2 2.5 ng/mL) [10] | -3.48 | 1.81 | 3.09 | 2.4 | -1.99
IMC-1 (IL-2 20 ng/mL) [9] | -6.64 | -7.44 | -3.21 | -3.37 | 1.06
KAI3 (IL-2 2.5 ng/mL) [2] | -0.03 | -0.25 | -3.05 | 7.49 | 15.8
KHYG-1 (IL-2 2.5 ng/mL) [5] | -6.67 | -7.43 | -4.03 | -0.13 | 5.26
NK-92 (IL-2 2.5 ng/mL) [12] | -24.1 | -23.8 | -13.7 | -0.86 | 25.2
NK-YS (IL-2 2.5 ng/mL) [6] | -6.27 | -8.05 | -4.24 | 4.76 | 5.97
NKL (IL-2 2.5 ng/mL) [13] | -6.64 | -0.61 | 0.44 | 14.6 | 17.6
SNK-6 (IL-2 2.5 ng/mL) [1] | -2.9 | 19.3 | 2.79 | -3.57 | -1.81
YT (IL-2 2.5 ng/mL) [8] | -5.45 | -5.75 | -1.04 | 3.95 | 7.04
[3] | -14 | -8.34 | -3.37 | 7.22 | 4.22
[4] | -6.2 | 0.66 | 14.2 | 7.19 | 6.85
[7] | -0.38 | 0.34 | 17.6 | 14.6 | 9.36
[11] | -14.8 | -8.58 | 1.59 | 7.84 | 2.88
[27] | -6.15 | -1.69 | -7.22 | -1.27 | 8.03

Details | drug sensitivity score
DERL-7 (IL-2 2.5 ng/mL) [23] | 0
IMC-1 (IL-2 20 ng/mL) [22] | 0
KAI3 (IL-2 2.5 ng/mL) [15] | 0.91
KHYG-1 (IL-2 2.5 ng/mL) [18] | 0
NK-92 (IL-2 2.5 ng/mL) [25] | 0.9
NK-YS (IL-2 2.5 ng/mL) [19] | 0
NKL (IL-2 2.5 ng/mL) [26] | 1.69
SNK-6 (IL-2 2.5 ng/mL) [14] | 0
YT (IL-2 2.5 ng/mL) [21] | 0
[16] | 0
[17] | 0.05
[20] | 3.83
[24] | 0
[28] | 0

C[C@]1(O)C[C@@H](c2nc(-c3ccc4ccc(-c5ccccc5)nc4c3)c3c(N)nccn32)C1 [Linsitinib] (max concentration tested 10000 nM)
percent inhibition of viability [%]
Details | 1 nM | 10 nM | 100 nM | 1000 nM | 10000 nM
DERL-7 (IL-2 2.5 ng/mL) [10] | -5.4 | 6.82 | -0.65 | -2.2 | 7.81
IMC-1 (IL-2 20 ng/mL) [9] | -3.5 | -2.97 | -5.08 | -2.76 | -3.58
KAI3 (IL-2 2.5 ng/mL) [2] | 6.27 | -1.21 | -4.49 | -3.92 | -0.2
KHYG-1 (IL-2 2.5 ng/mL) [5] | -4.45 | -3.38 | -4.33 | 0.38 | 8.9
NK-92 (IL-2 2.5 ng/mL) [12] | 2.33 | 5.73 | 13 | 14.5 | 29.1
NK-YS (IL-2 2.5 ng/mL) [6] | -6.48 | -5.34 | -2.18 | 3.9 | 7.93
NKL (IL-2 2.5 ng/mL) [13] | -9.46 | -15.4 | -8.54 | -9.73 | 12.4
SNK-6 (IL-2 2.5 ng/mL) [1] | 5.21 | -12.6 | -15.2 | -16.7 | -11
YT (IL-2 2.5 ng/mL) [8] | 1.95 | 2.48 | 2.32 | 5.99 | 17.4
[3] | -2.53 | 1.1 | -5.12 | 3.42 | 27.6
[4] | -5.96 | -9.98 | -7.82 | -7.33 | 27.3
[7] | -20.4 | -14.2 | 17.7 | 8.71 | 42.2
[11] | -0.78 | 1.11 | 5.04 | -1.16 | 15.8
[27] | -3.84 | -4.8 | -1.86 | -1.74 | 2.14

Details | drug sensitivity score
DERL-7 (IL-2 2.5 ng/mL) [23] | 0
IMC-1 (IL-2 20 ng/mL) [22] | 0
KAI3 (IL-2 2.5 ng/mL) [15] | 0
KHYG-1 (IL-2 2.5 ng/mL) [18] | 0
NK-92 (IL-2 2.5 ng/mL) [25] | 3.33
NK-YS (IL-2 2.5 ng/mL) [19] | 0
NKL (IL-2 2.5 ng/mL) [26] | 0.01
SNK-6 (IL-2 2.5 ng/mL) [14] | 0
YT (IL-2 2.5 ng/mL) [21] | 0.72
[16] | 1.67
[17] | 0.79
[20] | 3.19
[24] | 0.23
[28] | 0

NC(=O)N1CCC(CC(=O)N2CCC([C@H]3c4ncc(Br)cc4CCc4cc(Cl)cc(Br)c43)CC2)CC1 [Lonafarnib] (max concentration tested 10000 nM)
percent inhibition of viability [%]
Details | 1 nM | 10 nM | 100 nM | 1000 nM | 10000 nM
DERL-7 (IL-2 2.5 ng/mL) [10] | 3.48 | 0.48 | 5.47 | 44.5 | 73
IMC-1 (IL-2 20 ng/mL) [9] | -4.85 | -3.21 | -6.32 | -1.06 | 36.6
KAI3 (IL-2 2.5 ng/mL) [2] | -4.05 | 0.27 | 9.71 | 30.5 | 38.6
KHYG-1 (IL-2 2.5 ng/mL) [5] | -3.98 | -2.08 | 3.33 | 67.6 | 83.9
NK-92 (IL-2 2.5 ng/mL) [12] | -13 | -12.8 | -0.32 | 39.8 | 57.2
NK-YS (IL-2 2.5 ng/mL) [6] | -6.93 | -2.78 | 13.2 | 56.3 | 79.7
NKL (IL-2 2.5 ng/mL) [13] | -11.3 | -10.4 | -4.09 | 19.2 | 37.3
SNK-6 (IL-2 2.5 ng/mL) [1] | 3.51 | 1.11 | 8.58 | 31.1 | 33.3
YT (IL-2 2.5 ng/mL) [8] | -2.94 | -2.27 | 4.51 | 28.1 | 60.1
[3] | -4.12 | 2.21 | 1.62 | 17.7 | 73.4
[4] | -10.4 | -3.37 | 6.08 | 19.4 | 88.9
[7] | -4.29 | 2.54 | 32.3 | 35.8 | 90
[11] | -2.09 | 0.34 | 2.3 | 9.06 | 52.3
[27] | -2.48 | -4.83 | 1.81 | 10.5 | 25.2

Details | drug sensitivity score
DERL-7 (IL-2 2.5 ng/mL) [23] | 9.51
IMC-1 (IL-2 20 ng/mL) [22] | 1.66
KAI3 (IL-2 2.5 ng/mL) [15] | 6.28
KHYG-1 (IL-2 2.5 ng/mL) [18] | 13
NK-92 (IL-2 2.5 ng/mL) [25] | 7.81
NK-YS (IL-2 2.5 ng/mL) [19] | 12.2
NKL (IL-2 2.5 ng/mL) [26] | 4.21
SNK-6 (IL-2 2.5 ng/mL) [14] | 6.27
YT (IL-2 2.5 ng/mL) [21] | 6.47
[16] | 6.83
[17] | 8.02
[20] | 11.6
[24] | 4.3
[28] | 1.95
